From patent publication US20180110796A1, “COMPOSITIONS AND METHODS FOR THE TREATMENT OF HBV INFECTION” (Spring Bank Pharmaceuticals, Inc., priority 2015, published 2018)

Assays:
[1] = test system: woodchuck hepatitis virus (WHV); experiment: Antiviral efficacy of oral Formula (IIa) in chronic WHV carrier woodchucks (Example 2); format: in vivo, woodchuck (Marmota monax); conditions: for weeks per approximately 1 log10 decline of serum WHV DNA: 12-week treatment; for average reduction of serum WHV DNA at the end of treatment: week 12, vs T0; for maximum reduction of hepatic WHV DNA RI from pretreatment level / maximum reduction of hepatic WHV RNA from pretreatment level / maximum reduction of hepatic WHV cccDNA from pretreatment level: after 12 weeks; for maximum reduction of serum WHsAg: after 12 weeks of treatment
[2] = test system: woodchuck hepatitis virus (WHV); experiment: Formula (IIa) in combination with entecavir, sequential oral treatment of chronic WHV carrier woodchucks (Example 3); format: in vivo, woodchuck (Marmota monax)
Text: Ten (10) woodchucks chronically infected with WHV were used. Woodchucks were born in captivity and were inoculated at 3 days of age with cWHV7P2a inoculum, then reared until 11 months of age. Prior to the study, woodchucks were confirmed as established chronic carriers of WHV based on established criteria including the presence of WHV surface antigen (WHsAg), antibody against […], and WHV DNA. Woodchucks used in the study were of both gender and approximately between 12 and 14 months of age at the start of the study.
Two (2) groups of five (5) chronic WHV carrier woodchucks each were used in the study:
Group 1 was orally treated for 4 weeks with ETV at a daily dose of 0.5 mg/kg starting at T0, followed by add-on treatment with Formula (IIa) for 12 weeks at a daily dose of 30 mg/kg. Woodchucks were then followed for a total of 24 weeks.
Group 2 was orally treated for 12 weeks with Formula (IIa) at a daily dose of 30 mg/kg starting at T0, followed by add-on treatment with ETV for 4 weeks at a daily dose of 0.5 mg/kg. Woodchucks were then also followed for a total of 24 weeks.
Formula (IIa) was supplied as a pre-weighed powder in individual containers. An amount of powder sufficient to treat all 10 pre-weighed woodchucks per day with Formula (IIa) was mixed directly with woodchuck diet powder (Dyets Inc., Bethlehem, Pa.) and then suspended with HPLC water. The drug was orally administered with a dose syringe at T0 (Group 2) or after 4 weeks of treatment with ETV (Group 1), and thereafter every day for 12 weeks (84 days). Drug dosing was then followed by an extra 2 ml of woodchuck liquid diet to ensure complete consumption of Formula (IIa).
ETV was provided as powder. An amount of powder sufficient to treat all 10 woodchucks per day was suspended in isotonic saline at a concentration of 0.5 mg/ml. A volume (ml) of drug solution equivalent to the body weight (kg) of an individual woodchuck was then mixed with approximately 3-5 ml of woodchuck liquid diet and administered orally with a dose syringe at T0 (Group 1) or after 12 weeks of treatment with Formula (IIa) (Group 2), and thereafter every day for 4 weeks (28 days). ETV dosing was followed by an extra 2 ml of woodchuck liquid diet to ensure complete consumption of drug.
Prior to administration of Formula (IIa) or ETV at T0, then weekly until the end of the study at week 24, whole blood samples were drawn from each woodchuck under ketamine/xylazine anesthesia for determinations of serum WHV DNA, WHsAg, and anti-WHs (see Summary Table below). […] Blood samples were kept at room temperature following collection and serum harvested upon observation of clot retraction. Harvested serum was transferred to microcentrifuge tubes and stored frozen at −70° C. until use.
The induction of an innate immune response in peripheral blood and liver of woodchucks by combination treatment with Formula (IIa) and ETV were determined via real time PCR-based assays. Whole blood samples were obtained prior to the start of treatment with Formula (IIa) at T0, and then at weeks 4, 10, 16, 20, and 24 (Group 1) or at weeks 6, 12, 16, 20, and 24 (Group 2) (see Summary Table below). Whole blood was drawn into PAXgene blood tubes at the indicated time points and stored at −70° C. until use. Total RNA was isolated from whole blood and treated with DNase using the PAXgene Blood miRNA Kit (Quiagen). This was followed by reverse transcription of mRNA into cDNA and amplification of host immune response genes by real time PCR. Woodchuck cytokine and interferon-stimulated genes included IFN-α, IFN-β, interleukin 6 (IL-6), 2′-5′-oligoadenylate synthetase 1 (OAS-1), interferon-induced 17 kDa protein (ISG15), and interferon gamma-induced protein 10 (IP-10or CXCL10). Woodchuck 18S rRNA expression was used to normalize target gene expression. […]

[3] = test system: HBV-infected primary human hepatocytes; experiment: In vitro studies using HBV-infected primary human hepatocytes; format: cell-based
Text: During viral infections, virus-derived nucleic acids (both DNA and RNA) are mainly sensed by certain pattern-recognition receptors such as RIG-1 and NOD2 which are located within the cytoplasm of cells, including hepatocytes. Binding of these viral sensor proteins to PAMP within the viral nucleic acids activates downstream signaling pathways which include the mitochondrial antiviral signaling protein (MAVS) leading to the induction of the IFN-regulatory factor-3 (IRF-3) and NF-κB dependent gene expression, and the subsequent production of type I and type III IFNs and inflammatory cytokines. Thus, sensing of viral nucleic acids is a crucial process to induce antiviral innate immune responses for limiting viral replication and for activation of adaptive immunity. For HBV it has been recently shown that RIG-1 sensing is mediated through recognition of the 5′-end ϵ region of the HBV pg RNA which leads to the induction of type III rather than type I IFNs in human primary hepatocytes in response to in vitro infection. In addition, activated RIG-1 is able to counter-act the interaction of the HBV polymerase protein with the HBV pgRNA in an IFN pathway independent manner resulting in suppressed viral replication. […]

HBV = experiment: Dose-ranging study in the HBV transgenic mouse model; format: in vivo; conditions: once-daily oral 1 to 100 mg/kg/day for 14 days
[4] = 15 and 30 mg/kg, all treated woodchucks
[5] = 30 mg/kg daily oral, week 12, Group 2 before add-on ETV

COC1[C@@H](OP(=O)(OC[C@H]2O[C@@H](n3cnc4c(N)ncnc43)C[C@H]2O)SCOC(=O)OC(C)C)[C@@H](CO)O[C@H]1n1ccc(=O)[nH]c1=O (stereo partly drawn) [Formula (IIa)]
seroconversion to anti-WHs antibodies and anti-WHe antibodies ([1]; 15 and 30 mg/kg, 12 weeks): not observed
hepatic expression scores of cytoplasmic WHcAg from pretreatment level [1, 4]: dose-dependent, transient reductions
scores of liver inflammation during the 12-week treatment period [1, 4]: unchanged or even reduced
delay in WHsAg rebound, high dose versus low dose ([1]; high dose 30 mg/kg): 1-7 week
delay in relapse of serum WHV DNA, high dose versus low dose ([1]; high dose 30 mg/kg): 2-4 weeks
time for serum WHV DNA to return to pretreatment level after withdrawal ([1]; high dose 30 mg/kg): 5-7 weeks
time for serum WHsAg to return to pretreatment level after the end of treatment ([1]; high dose 30 mg/kg): 6-8 weeks
weeks per approximately 1 log10 decline of serum WHV DNA ([1]; high dose 30 mg/kg daily oral): ~3 weeks
average reduction of serum WHV DNA at the end of treatment ([1]; high dose 30 mg/kg daily oral): 3.7 log10
maximum reduction of hepatic WHV DNA RI from pretreatment level ([1]; high dose 30 mg/kg): 38%
maximum reduction of hepatic WHV RNA from pretreatment level ([1]; high dose 30 mg/kg): 45%
maximum reduction of hepatic WHV cccDNA from pretreatment level ([1]; high dose 30 mg/kg): 25%
maximum reduction of serum WHsAg ([1]; high dose 30 mg/kg): 1.6 log10
time for serum WHV DNA to return to pretreatment level after withdrawal ([1]; low dose 15 mg/kg): 3-5 weeks
time for serum WHsAg to return to pretreatment level after completion of treatment ([1]; low dose 15 mg/kg): 1-5 weeks
weeks per approximately 1 log10 decline of serum WHV DNA ([1]; low dose 15 mg/kg daily oral): ~6 weeks
average reduction of serum WHV DNA at the end of treatment ([1]; low dose 15 mg/kg daily oral): 2.2 log10
maximum reduction of hepatic WHV DNA RI from pretreatment level ([1]; low dose 15 mg/kg): 19%
maximum reduction of hepatic WHV RNA from pretreatment level ([1]; low dose 15 mg/kg): 22%
maximum reduction of hepatic WHV cccDNA from pretreatment level ([1]; low dose 15 mg/kg): 16%
maximum reduction of serum WHsAg ([1]; low dose 15 mg/kg): 0.5 log10
decline of serum WHsAg until the end of Formula (IIa) treatment [2, 5]: 1.49 log 10
reduction of mean serum WHV DNA from pretreatment level at the end of Formula (IIa) treatment [2, 5]: 3.54 log 10
weeks per approximately 1 log10 decline of serum WHV DNA ([2]; Formula (IIa) 30 mg/kg, initial 6 weeks of treatment, Group 2): ~3 weeks
HBV DNA levels [3]: significant reduction
secreted HBsAg and HBV e antigen (HBeAg) ([3]; similar to IFN-α treatment): declines
liver HBV DNA (HBV): significant reduction
